Converted amounts (≈) assume the structure as drawn. The source made the active and inactive calls. The calls are words filed in the database; no cut-off is given here.
Key:
SK-MEL [1] = test: Cytotoxicity against human SK-MEL cells after 48 hrs by neutral red dye staining; format: functional, cell-based
Plasmodium falciparum [2] = test: microbe, parasite or virus in culture; settings: W2, 72 h
SK-OV-3 [3] = test: Cytotoxicity against human SKOV3 cells after 48 hrs by neutral red dye staining; format: functional, cell-based; settings: SK-OV-3, 48 h
[4] = Cytotoxicity against pig LLC-PK11 cells after 48 hrs by neutral red dye staining; format: functional, cell-based; settings: Sus scrofa, LLC-PK11, 48 h
Lactuca sativa [5] = test: Phytotoxicity against Lactuca sativa at 1 mg/ml; format: functional, organism-based
Agrostis stolonifera [6] = test: Phytotoxicity against Agrostis stolonifera at 1 mg/ml; format: functional, organism-based
Lactuca sativa [7] = test: Phytotoxicity against Lactuca sativa at 0.001 mg/ml; format: functional, organism-based
BT-549 [8] = test: Cytotoxicity against human BT549 cells after 48 hrs by neutral red dye staining; format: functional, cell-based; settings: BT-549, 48 h
Vero [9] = test: Cytotoxicity against african green monkey Vero cells after 48 hrs by neutral red dye staining; format: cell-based; settings: Chlorocebus sabaeus
Plasmodium falciparum [10] = test: microbe, parasite or virus in culture; settings: D6, 72 h
KB [11] = test: Cytotoxicity against human KB cells after 48 hrs by neutral red dye staining; format: functional, cell-based
Agrostis stolonifera [12] = test: Phytotoxicity against Agrostis stolonifera at 0.001 mg/ml; format: functional, organism-based
Vero [13] = test: Cytotoxicity against african green monkey Vero cells at 4760 ng/ml after 48 hrs by neutral red dye staining; format: cell-based; settings: Chlorocebus sabaeus
KB [14] = test: Cytotoxicity against human KB cells at 10 ug/ml after 48 hrs by neutral red dye staining; format: functional, cell-based
Plasmodium falciparum [15] = test: Antiplasmodial activity against chloroquine-resistant Plasmodium falciparum W2 assessed as LDH activity at 4760 ng/ml after 72 hrs by malstat reagent method; format: functional, organism-based
Agrostis stolonifera [16] = test: Phytotoxicity against Agrostis stolonifera at 0.1 mg/ml; format: functional, organism-based
Lactuca sativa [17] = test: Phytotoxicity against Lactuca sativa at 0.01 mg/ml; format: functional, organism-based
SK-OV-3 [18] = test: Cytotoxicity against human SKOV3 cells at 10 ug/ml after 48 hrs by neutral red dye staining; format: functional, cell-based
[19] = Cytotoxicity against pig LLC-PK11 cells at 10 ug/ml after 48 hrs by neutral red dye staining; format: functional, cell-based, Sus scrofa
Lactuca sativa [20] = test: Phytotoxicity against Lactuca sativa at 0.1 mg/ml; format: functional, organism-based
BT-549 [21] = test: Cytotoxicity against human BT549 cells at 10 ug/ml after 48 hrs by neutral red dye staining; format: functional, cell-based
SK-MEL [22] = test: Cytotoxicity against human SK-MEL cells at 10 ug/ml after 48 hrs by neutral red dye staining; format: functional, cell-based
Agrostis stolonifera [23] = test: Phytotoxicity against Agrostis stolonifera at 0.01 mg/ml; format: functional, organism-based
Plasmodium falciparum [24] = test: Antiplasmodial activity against chloroquine-sensitive Plasmodium falciparum D6 assessed as LDH activity at 4760 ng/ml after 72 hrs by malstat reagent method; format: functional, organism-based
Lemna aequinoctialis = test: Phytotoxicity against Lemna paucicostata after 7 days; format: functional, organism-based; settings: 168 h, read-out: I50

Row | SMILES | IC50 (SK-MEL [1]) [µg/mL] | IC50 (Plasmodium falciparum [2]) [µg/mL] | IC50 (SK-OV-3 [3]) [µg/mL] | IC50 [4] [µg/mL] | Activity (Lactuca sativa [5]) | Activity (Agrostis stolonifera [6]) | Activity (Lactuca sativa [7]) | IC50 (BT-549 [8]) [µg/mL] | IC50 (Vero [9]) [µg/mL] | IC50 (Plasmodium falciparum [10]) [µg/mL] | IC50 (KB [11]) [µg/mL] | Activity (Agrostis stolonifera [12]) | inhibition (INH) (Vero [13]) | inhibition (KB [14]) | Activity (Agrostis stolonifera [16]) | Activity (Lactuca sativa [17]) | inhibition (SK-OV-3 [18]) | Activity (Lactuca sativa [20]) | IC50 (Lemna aequinoctialis) [nM] | further results
1 | C[C@]12CCC[C@](C)(C(=O)O)[C@@H]1C=C[C@]1(O)COC(=O)C[C@H]21 [OIDIOLACTONE E] | 0.72 (≈ 2.45 µM) | 0.19 (≈ 0.645 µM) | 6.3 (≈ 21.4 µM) | 4.8 (≈ 16.3 µM) | Active | Active | inactive | 9 (≈ 30.6 µM) | 1.7 (≈ 5.78 µM) | 0.25 (≈ 0.849 µM) | 4.5 (≈ 15.3 µM) | inactive | – | – | – | – | – | – | – | –
2 | C=C1C(O)CC2[C@](C)(CCC[C@]2(C)C(=O)O)C1CC(=O)O (some centres not stated) | – | – | – | – | – | inactive | inactive | – | – | – | – | inactive | Not Active | inactive | inactive | inactive | inactive | inactive | – | inhibition (Plasmodium falciparum [15]): inactive; Cytotoxicity at 10 ug/ml [19]: Not Active; inhibition (BT-549 [21]): inactive; inhibition (SK-MEL [22]): inactive; Activity (Agrostis stolonifera [23]): inactive; inhibition (Plasmodium falciparum [24]): inactive
3 | C[C@@]12C=C[C@H](O)[C@]3(C)C(=O)O[C@H](C=C4COC(=O)C=C41)C23 (some centres not stated) | 0.12 (≈ 0.416 µM) | 0.032 (≈ 0.111 µM) | 1.1 (≈ 3.82 µM) | 1.1 (≈ 3.82 µM) | Active | Active | inactive | 1.2 (≈ 4.16 µM) | 0.95 (≈ 3.3 µM) | – | 0.6 (≈ 2.08 µM) | inactive | – | – | Active | Active | – | Active | 790 | –
4 | C[C@@]12CC[C@@H](O)[C@]3(C)C(=O)O[C@H](C=C4COC(=O)C=C41)C23 (some centres not stated) | – | – | – | – | Active | Active | inactive | – | – | – | – | inactive | Not Active | inactive | – | inactive | inactive | – | – | inhibition (Plasmodium falciparum [15]): inactive; Cytotoxicity at 10 ug/ml [19]: Not Active; inhibition (BT-549 [21]): inactive; inhibition (SK-MEL [22]): inactive; Activity (Agrostis stolonifera [23]): inactive; inhibition (Plasmodium falciparum [24]): inactive
5 | C[C@@H]1CC[C@H]2[C@@H](C)C(=O)O[C@@H]3O[C@@]4(C)CC[C@@H]1[C@]32OO4 [ARTEMISININ] | – | 0.0038 (≈ 0.0135 µM) | – | – | – | – | – | – | – | 0.0047 (≈ 0.0166 µM) | – | – | Not Active | – | – | – | – | – | – | –
6 | C[C@@]12CCC[C@]3(C)C4=CC(=O)OCC4=C[C@@H](OC1=O)C23 (some centres not stated) | 1.1 (≈ 4.01 µM) | – | > 10 | 5.4 (≈ 19.7 µM) | Active | Active | inactive | > 10 | 3.7 (≈ 13.5 µM) | 0.3 (≈ 1.09 µM) | 4.2 (≈ 15.3 µM) | inactive | – | – | Active | – | – | Active | 950 | –
7 | CCN(CC)CCCC(C)Nc1ccnc2cc(Cl)ccc12 (configuration not stated) [CHLOROQUINE] | – | – | – | – | – | – | – | – | – | – | – | – | Not Active | – | – | – | – | – | – | –
8 | C[C@]12C=CC[C@]3(C)C(=O)O[C@@H](C13)[C@H]1O[C@]13COC(=O)C=C32 (some centres not stated) | 2.8 (≈ 9.71 µM) | 2.3 (≈ 7.98 µM) | – | > 10 | Active | Active | inactive | > 10 | – | 2.3 (≈ 7.98 µM) | – | – | Not Active | inactive | Active | – | inactive | Active | 650 | –
9 | C[C@@]12CC[C@@H](O)[C@]3(C)C4=CC(=O)OCC4=C[C@@H](OC1=O)C23 (some centres not stated) | 3.3 (≈ 11.4 µM) | – | > 10 | > 10 | Active | Active | inactive | > 10 | 4.76 (≈ 16.4 µM) | – | > 10 | inactive | – | – | Active | – | – | Active | 547000 | –
10 | C[C@@]12C=CC[C@]3(C)C(=O)O[C@H](C=C4COC(=O)C=C41)C23 (some centres not stated) | 2.3 (≈ 8.45 µM) | 0.13 (≈ 0.477 µM) | 6 (≈ 22 µM) | 10 (≈ 36.7 µM) | Active | Active | inactive | 9.6 (≈ 35.3 µM) | 3 (≈ 11 µM) | – | 4.3 (≈ 15.8 µM) | inactive | – | – | Active | – | – | Active | 730 | –
11 | C[C@]12CC[C@@H](O)[C@]3(C)C(=O)O[C@@H](C13)[C@H]1O[C@]13COC(=O)C=C32 (some centres not stated) | – | – | – | – | Active | Active | inactive | – | – | – | – | inactive | Not Active | inactive | – | inactive | inactive | – | – | inhibition (Plasmodium falciparum [15]): inactive; Cytotoxicity at 10 ug/ml [19]: Not Active; inhibition (BT-549 [21]): inactive; inhibition (SK-MEL [22]): inactive; Activity (Agrostis stolonifera [23]): inactive; inhibition (Plasmodium falciparum [24]): inactive
12 | C[C@@]12C[C@@H](O)C[C@]3(C)C4=CC(=O)OC[C@]45O[C@@H]5[C@@H](OC1=O)C23 (some centres not stated) | 1.1 (≈ 3.59 µM) | – | 10 (≈ 32.6 µM) | 4.2 (≈ 13.7 µM) | Active | Active | inactive | 10 (≈ 32.6 µM) | 3.3 (≈ 10.8 µM) | 0.74 (≈ 2.42 µM) | 6.8 (≈ 22.2 µM) | inactive | – | – | Active | – | – | Active | 3320 | –
13 | C[C@]12C=C[C@H](O)[C@]3(C)C(=O)O[C@@H](C13)[C@H]1O[C@]13COC(=O)C=C32 (some centres not stated) | 0.58 (≈ 1.91 µM) | 0.6 (≈ 1.97 µM) | 8 (≈ 26.3 µM) | 2.8 (≈ 9.2 µM) | Active | Active | – | 4.8 (≈ 15.8 µM) | 1.5 (≈ 4.93 µM) | 0.75 (≈ 2.46 µM) | 4.4 (≈ 14.5 µM) | – | – | – | Active | Active | – | Active | 390 | –
14 | C[C@@]12CC[C@@H](O)[C@]3(C)C4=CC(=O)OC[C@]45O[C@@H]5[C@@H](OC1=O)C23 (some centres not stated) | 10 (≈ 32.6 µM) | – | – | – | Active | Active | – | – | – | – | – | inactive | Not Active | inactive | Active | – | inactive | Active | 6420 | inhibition (Plasmodium falciparum [15]): inactive; Cytotoxicity at 10 ug/ml [19]: Not Active; inhibition (BT-549 [21]): inactive; inhibition (Plasmodium falciparum [24]): inactive
15 | C[C@@]12C[C@@H](O)C[C@]3(C)C4=CC(=O)OCC4=C[C@@H](OC1=O)C23 (some centres not stated) | 0.41 (≈ 1.41 µM) | – | 3.2 (≈ 11 µM) | 1.2 (≈ 4.13 µM) | Active | Active | – | 4.7 (≈ 16.2 µM) | 1 (≈ 3.44 µM) | – | 2.1 (≈ 7.23 µM) | – | – | – | Active | – | – | Active | 9090 | –
